The values below come from US20110209228A1, “METHOD OF TREATMENT USING ANTIMICROBIAL COMPOSITION” (priority 2008, published 2011).

This assay has as its system E. coli TOP10. Briefly: growth inhibition screen by expression of the peptide in host bacteria (pBAD/gIIIA, L-arabinose induction, OD600). The class given is cell-based. The following applies: E. coli TOP10, OD600 before and 4 hours after L-arabinose induction.

“5: antimicrobial peptide produced by mutagenesis based on SEQ ID NO: 7 and/or 8 (chain 1 SSRSAAGTIWEFEAF; chain 2 MVKRGLGKNLKRRATKIGNGIKNTLRNFNVVFPIPRPG; Consensus sequence of antimicrobial peptide; Antimicrobial peptide 5) [compound 5]”: the “antimicrobial activity: inhibiting bacterial growth and/or killing bacteria on expression (in words)” value is “having antimicrobial activity”.

“10: antimicrobial peptide produced by mutagenesis based on SEQ ID NO: 7 and/or 8 (MVKRGFGKRLRKRPKKFRNSIKKRLKNFNVVFPVPRPG; antimicrobial peptide A12) [compound 10]”: the “antimicrobial activity: inhibiting bacterial growth and/or killing bacteria on expression (in words)” value was “having antimicrobial activity”.

Consider “13: antimicrobial peptide produced by mutagenesis based on SEQ ID NO: 7 and/or 8 (MVKRGFWKSLKRKLKKFGMILGID; Antimicrobial peptide 13) [compound 13]”, for which the “antimicrobial activity: inhibiting bacterial growth and/or killing bacteria on expression (in words)” value was “having antimicrobial activity”.

As for “20: antimicrobial peptide produced by mutagenesis based on SEQ ID NO: 7 and/or 8 (MVKRGFGESLRRRVTKLRDDIKKH; Antimicrobial peptide 20) [compound 20]”, the “antimicrobial activity: inhibiting bacterial growth and/or killing bacteria on expression (in words)” value is “having antimicrobial activity”.

Turning to “28: antimicrobial peptide produced by mutagenesis based on SEQ ID NO: 7 and/or 8 (chain 1 MVLGGFSRCRWLEEKLRDFMKNLVVRIAG; chain 2 MVKRGLGEKLRRRPKKFGIVLGIH; Antimicrobial peptide F7; Antimicrobial peptide 28) [compound 28]”, the “antimicrobial activity: inhibiting bacterial growth and/or killing bacteria on expression (in words)” value is reported as “having antimicrobial activity”.

As to “A4: antimicrobial peptide produced by mutagenesis based on SEQ ID NO: 7 and/or 8 (MVKRGFGKNLRRRPTKFRNSIRNRLKNFNIEFPVPRQG; Antimicrobial peptide A4)”, the “antimicrobial activity: inhibiting bacterial growth and/or killing bacteria on expression (in words)” value was “having antimicrobial activity”.

For the substance “A5: antimicrobial peptide produced by mutagenesis based on SEQ ID NO: 7 and/or 8 (MVKRGFWKKLKRKAKKFRNSIRKTLKNFNIIIPVPLPG; Antimicrobial peptide A5)”, the “antimicrobial activity: inhibiting bacterial growth and/or killing bacteria on expression (in words)” value is on record as “having antimicrobial activity”.

On to “A6: antimicrobial peptide produced by mutagenesis based on SEQ ID NO: 7 and/or 8 (MVKRGLGKKLKKKPKKFRNSIKKRLKNFNIEIPIPRQG; Antimicrobial peptide A6)”, for which the “antimicrobial activity: inhibiting bacterial growth and/or killing bacteria on expression (in words)” value is on record as “having antimicrobial activity”.

For “A10: antimicrobial peptide produced by mutagenesis based on SEQ ID NO: 7 and/or 8 (MVKRGFGKKLKKKAKKFRNSIRKRLKNFNVKIPVPLPG; Antimicrobial peptide A10)”, the “antimicrobial activity: inhibiting bacterial growth and/or killing bacteria on expression (in words)” value is given as “having antimicrobial activity”.

Take “A11: antimicrobial peptide produced by mutagenesis based on SEQ ID NO: 7 and/or 8 (MVKRGFGKKLRKRATKFRNSIRKRLKNFNIIFPVPRQG; Antimicrobial peptide A11)”: the “antimicrobial activity: inhibiting bacterial growth and/or killing bacteria on expression (in words)” value is given as “having antimicrobial activity”.

In the case of “A12: antimicrobial peptide produced by mutagenesis based on SEQ ID NO: 7 and/or 8 (MVKRGFGKRLRKRPKKFRNSIKKRLKNFNVVFPVPRPG; antimicrobial peptide A12)”, the “antimicrobial activity: inhibiting bacterial growth and/or killing bacteria on expression (in words)” value is reported as “having antimicrobial activity”.
